Assay results: patent US9120770B2, “Substituted pyridine and pyrazine compounds as PDE4 inhibitors” (DART NEUROSCIENCE (CAYMAN) LTD., priority 2013, dated 2015)

Each compound was assayed against PDE4D3 (Homo sapiens, UniProt Q08499).
Chain of PDE4D3 (Q08499 1-673 isoform Q08499-2): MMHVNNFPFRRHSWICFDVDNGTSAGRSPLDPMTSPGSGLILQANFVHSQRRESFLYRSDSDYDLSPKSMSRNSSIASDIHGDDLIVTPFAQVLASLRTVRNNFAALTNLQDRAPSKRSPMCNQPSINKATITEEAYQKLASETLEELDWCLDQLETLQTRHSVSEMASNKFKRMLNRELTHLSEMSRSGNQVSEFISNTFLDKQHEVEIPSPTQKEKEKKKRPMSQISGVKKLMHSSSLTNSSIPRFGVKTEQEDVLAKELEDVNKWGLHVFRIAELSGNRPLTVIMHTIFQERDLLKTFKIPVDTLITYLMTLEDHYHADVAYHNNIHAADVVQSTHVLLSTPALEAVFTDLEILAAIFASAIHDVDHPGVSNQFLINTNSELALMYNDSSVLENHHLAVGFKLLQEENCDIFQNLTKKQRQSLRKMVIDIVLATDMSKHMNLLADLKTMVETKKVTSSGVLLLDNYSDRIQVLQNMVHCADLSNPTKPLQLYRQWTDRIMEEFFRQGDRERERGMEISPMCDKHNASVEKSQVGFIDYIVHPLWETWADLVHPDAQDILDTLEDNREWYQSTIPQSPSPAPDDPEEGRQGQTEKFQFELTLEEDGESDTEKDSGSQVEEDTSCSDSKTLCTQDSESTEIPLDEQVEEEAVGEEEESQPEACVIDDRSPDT

Q: `COc1ncc(Cc2cnc(N)nc2)cc1-c1ccnc(OC(F)F)c1` [Example 47, 5-({5-[2-(Difluoromethoxy)pyridin-4-yl]-6-methoxypyridin-3-yl}methyl)pyrimidin-2-amine] was tested. Which EC50 did it give?
A: < 100 nM

Q: For `COc1ncc(Cc2cnc(C(C)(C)O)nc2)cc1-c1cccc(OC(F)F)c1` [Example 48, 2-[5-({5-[3-(Difluoromethoxy)phenyl]-6-methoxypyridin-3-yl}methyl)pyrimidin-2-yl]propan-2-ol], which EC50 is on record?
A: < 100 nM

Q: With `COc1ncc(Cc2ccc(C(F)(F)F)nc2)cc1-c1cccc(Cl)c1` [Example 49, 3-(3-Chlorophenyl)-2-methoxy-{[6-(trifluoromethyl)pyridin-3-yl]methyl}pyridine] as the compound, how does the EC50 read?
A: 100 to 1000 nM

Q: How did the EC50 turn out when `CC(C)Oc1ccc(Cc2cnc(OC(F)F)c(-c3cccc(Cl)c3)c2)cn1` [Example 50, 3-(3-Chlorophenyl)-2-(difluoromethoxy)-5-{[6-(propan-2-yloxy)pyridin-3-yl]methyl}pyridine] was run?
A: 1000 to 10000 nM

Q: How did the EC50 turn out when `CCCOc1ccc(Cc2cnc(OC(F)F)c(-c3cccc(Cl)c3)c2)cn1` [Example 51, 3-(3-Chlorophenyl)-2-(difluoromethoxy)-5-[(6-propoxypyridin-3-yl)methyl]pyridine] was run?
A: 100 to 1000 nM

Q: Which EC50 does the source give for `COc1ncc(Cc2ccc(=O)n(C)c2)cc1-c1cccc(Cl)c1` [Example 52, 5-{[5-(3-Chlorophenyl)-6-methoxypyridin-3-yl]methyl}-1-methyl-1,2-dihydropyridin-2-one] here?
A: 1000 to 10000 nM

Q: Which EC50 does the source give for `COc1ncc(Cc2ccncc2)cc1-c1cccc(Cl)c1` [Example 53, 3-(3-Chlorophenyl)-2-methoxy-5-(pyridin-4-ylmethyl)pyridine] here?
A: 100 to 1000 nM

Q: How did the EC50 turn out when `O=C(O)c1ccc(Cc2cnc(OC(F)F)c(-c3cccc(Cl)c3)c2)cn1` [Example 54, 5-{[5-(3-Chlorophenyl)-6-(difluoromethoxy)pyridin-3-yl]methyl}pyridine-2-carboxylic acid] was run?
A: 1000 to 10000 nM

Q: With `COc1ncc(Cc2cnc(OC)c(-c3cccc(Cl)c3)n2)cn1` [Example 55, 3-(3-Chlorophenyl)-2-methoxy-5-[(2-methoxypyrimidin-5-yl)methyl]pyrazine] as the compound, how does the EC50 read?
A: < 100 nM

Q: For `CNc1ncc(Cc2cnc(OC)c(-c3cccc(Cl)c3)n2)cn1` [Example 56, 5-{[6-(3-Chlorophenyl)-5-methoxypyrazin-2-yl]methyl}-N-methylpyrimidin-2-amine], which EC50 is on record?
A: < 100 nM

Q: Which EC50 does the source give for `COc1ncc(Cc2cnc(NC3CC3)nc2)nc1-c1cccc(Cl)c1` [Example 57, 5-{[6-(3-Chlorophenyl)-5-methoxypyrazin-2-yl]methyl}-N-cyclopropylpyrimidin-2-amine] here?
A: 100 to 1000 nM

Q: For `COc1ncc(Cc2cnn(C)c2)nc1-c1cccc(Cl)c1` [Example 58, 3-(3-Chlorophenyl)-2-methoxy-5-[(1-methyl-1H-pyrazol-4-yl)methyl]pyrazine], which EC50 is on record?
A: < 100 nM

Q: `COc1ncc(Cc2ccc(CN)cc2)cc1-c1cccc(Cl)c1` [Example 59, (4-{[5-(3-Chlorophenyl)-6-methoxypyridin-3-yl]methyl}phenyl)methanamine] was tested. Which EC50 did it give?
A: 100 to 1000 nM

Q: `COc1ncc(Cc2ccnc(N)c2)cc1-c1cccc(Cl)c1` [Example 60, 4-{[5-(3-Chlorophenyl)-6-methoxypyridin-3-yl]methyl}pyridin-2-amine] was tested. Which EC50 did it give?
A: 100 to 1000 nM

Q: For `COc1ncc(Cc2cc(C)nc(C)c2)cc1-c1cccc(Cl)c1` [Example 61, 3-(3-Chlorophenyl)-5-[(2,6-dimethylpyridin-4-yl)methyl]-2-methoxypyridine], which EC50 is on record?
A: 1000 to 10000 nM

Q: How did the EC50 turn out when `COc1ncc(Cc2ccnc(C#N)c2)cc1-c1cccc(Cl)c1` [Example 62, 4-{[5-(3-Chlorophenyl)-6-methoxypyridin-3-yl]methyl}pyridine-2-carbonitrile] was run?
A: 1000 to 10000 nM

Q: Which EC50 does the source give for `COc1ncc(Cc2ccnc(C(N)=O)c2)cc1-c1cccc(Cl)c1` [Example 63, 4-{[5-(3-Chlorophenyl)-6-methoxypyridin-3-yl]methyl}pyridine-2-carboxamide] here?
A: 1000 to 10000 nM

Q: For `COc1ncc(Cc2cccnc2)cc1-c1cccc(Cl)c1` [Example 64, 3-(3-Chlorophenyl)-2-methoxy-5-(pyridin-3-ylmethyl)pyridine], which EC50 is on record?
A: 100 to 1000 nM

Q: With `COc1ncc(Cc2cncs2)cc1-c1cccc(Cl)c1` [Example 65, 3-(3-Chlorophenyl)-2-methoxy-5-(1,3-thiazol-5-ylmethyl)pyridine] as the compound, how does the EC50 read?
A: < 100 nM

Q: `COc1ncc(Cc2sc(C)nc2C)cc1-c1cccc(Cl)c1` [Example 66, 3-(3-Chlorophenyl)-5-[(dimethyl-1,3-thiazol-5-yl)methyl]-2-methoxypyridine] was tested. Which EC50 did it give?
A: < 100 nM

Q: For `COc1ncc(Cc2cnc(OC)c(-c3cccc(Cl)c3)c2)cc1C` [Example 67, 3-(3-Chlorophenyl)-2-methoxy-5-[(6-methoxy-5-methylpyridin-3-yl)methyl]pyridine], which EC50 is on record?
A: 100 to 1000 nM

Q: How did the EC50 turn out when `FC(F)Oc1ncc(Cc2cncs2)cc1-c1cccc(Cl)c1` [Example 68, 3-(3-Chlorophenyl)-2-(difluoromethoxy)-5-(1,3-thiazol-5-ylmethyl)pyridine] was run?
A: < 100 nM

Q: How did the EC50 turn out when `Cc1nc(C)c(Cc2cnc(OC(F)F)c(-c3cccc(Cl)c3)c2)s1` [Example 69, 3-(3-Chlorophenyl)-2-(difluoromethoxy)-5-[(dimethyl-1,3-thiazol-5-yl)methyl]pyridine] was run?
A: < 100 nM

Q: How did the EC50 turn out when `NC(=O)c1cncc(Cc2cnc(OC(F)F)c(-c3cccc(Cl)c3)c2)c1` [Example 70, 5-{[5-(3-Chlorophenyl)-6-(difluoromethoxy)pyridin-3-yl]methyl}pyridine-3-carboxamide] was run?
A: 1000 to 10000 nM

Q: For `NCc1cncc(Cc2cnc(OC(F)F)c(-c3cccc(Cl)c3)c2)c1` [Example 71, (5-{[5-(3-Chlorophenyl)-6-(difluoromethoxy)pyridin-3-yl]methyl}pyridin-3-yl)methanamine], which EC50 is on record?
A: < 100 nM

Q: How did the EC50 turn out when `Cc1ccc(Cc2cnc(OC(F)F)c(-c3cccc(Cl)c3)c2)cn1` [Example 72, 3-(3-Chlorophenyl)-2-(difluoromethoxy)-5-[(6-methylpyridin-3-yl)methyl]pyridine] was run?
A: < 100 nM

Q: With `Cc1ncc(Cc2cnc(OC(F)F)c(-c3cccc(Cl)c3)c2)s1` [Example 73, 3-(3-Chlorophenyl)-2-(difluoromethoxy)-5-[(2-methyl-1,3-thiazol-5-yl)methyl]pyridine] as the compound, how does the EC50 read?
A: < 100 nM

Q: With `FC(F)Oc1ncc(Cc2nccs2)cc1-c1cccc(Cl)c1` [Example 74, 3-(3-Chlorophenyl)-2-(difluoromethoxy)-5-(1,3-thiazol-2-ylmethyl)pyridine] as the compound, how does the EC50 read?
A: 100 to 1000 nM

Q: Which EC50 does the source give for `COc1ncc(Cc2cnc(C)nc2)cc1-c1cccc(Cl)c1` [Example 75, 5-{[5-(3-Chlorophenyl)-6-methoxypyridin-3-yl]methyl}-2-methylpyrimidine] here?
A: 100 to 1000 nM

Q: Which EC50 does the source give for `COc1ncc(Cc2cnc(OC)c(-c3cccc(Cl)c3)c2)cn1` [Example 76, 5-{[5-(3-Chlorophenyl)-6-methoxypyridin-3-yl]methyl}-2-methoxypyrimidine] here?
A: < 100 nM

Q: With `COc1ncc(Cc2cnc(NC(C)C)nc2)cc1-c1cccc(Cl)c1` [Example 77, 5-{[5-(3-Chlorophenyl)-6-methoxypyridin-3-yl]methyl}-N-(propan-2-yl)pyrimidin-2-amine] as the compound, how does the EC50 read?
A: 1000 to 10000 nM

Q: `COc1ncc(Cc2cncnc2)cc1-c1cccc(Cl)c1` [Example 78, 5-{[5-(3-Chlorophenyl)-6-methoxypyridin-3-yl]methyl}pyrimidine] was tested. Which EC50 did it give?
A: < 100 nM

Q: `COc1ncc(Cc2cnn(C)c2)cc1-c1cccc(Cl)c1` [Example 79, 3-(3-Chlorophenyl)-2-methoxy-5-[(1-methyl-1H-pyrazol-4-yl)methyl]pyridine] was tested. Which EC50 did it give?
A: < 100 nM

Q: Which EC50 does the source give for `COc1ncc(Cc2cn[nH]c2)cc1-c1cccc(Cl)c1` [Example 80, 3-(3-Chlorophenyl)-2-methoxy-5-(1H-pyrazol-4-ylmethyl)pyridine] here?
A: < 100 nM

Q: For `CNc1ncc(Cc2cnc(OC)c(-c3cccc(Cl)c3)c2)cn1` [Example 81, 5-{[5-(3-Chlorophenyl)-6-methoxypyridin-3-yl]methyl}-N-methylpyrimidin-2-amine], which EC50 is on record?
A: 100 to 1000 nM

Q: With `COc1ncc(Cc2cnc(NC3CC3)nc2)cc1-c1cccc(Cl)c1` [Example 82, 5-{[5-(3-Chlorophenyl)-6-methoxypyridin-3-yl]methyl}-N-cyclopropylpyrimidin-2-amine] as the compound, how does the EC50 read?
A: < 100 nM

Q: Which EC50 does the source give for `COc1ncc(Cc2cnc(N(C)C)nc2)cc1-c1cccc(Cl)c1` [Example 83, 5-{[5-(3-Chlorophenyl)-6-methoxypyridin-3-yl]methyl}-N,N-dimethylpyrimidin-2-amine] here?
A: 100 to 1000 nM

Q: Which EC50 does the source give for `COc1ncc(Cc2cnc(NCC(F)(F)F)nc2)cc1-c1cccc(Cl)c1` [Example 84, 5-{[5-(3-Chlorophenyl)-6-methoxypyridin-3-yl]methyl}-N-(2,2,2-trifluoroethyl)pyrimidin-2-amine] here?
A: < 100 nM

Q: How did the EC50 turn out when `COC(=O)c1ccc(Cc2cnc(OC)c(-c3cccc(Cl)c3)n2)cc1` [Example 85, Methyl 4-{[6-(3-chlorophenyl)-5-methoxypyrazin-2-yl]methyl}benzoate] was run?
A: 100 to 1000 nM

Q: `COc1ncc(Cc2ccc(C#N)cc2)nc1-c1cccc(Cl)c1` [Example 86, 4-{[6-(3-Chlorophenyl)-5-methoxypyrazin-2-yl]methyl}benzonitrile] was tested. Which EC50 did it give?
A: 100 to 1000 nM

Q: Which EC50 does the source give for `COc1ncc(Cc2cnc(N)nc2)nc1-c1cccc(Cl)c1` [Example 87, 5-{[6-(3-Chlorophenyl)-5-methoxypyrazin-2-yl]methyl}pyrimidin-2-amine] here?
A: < 100 nM

Q: How did the EC50 turn out when `COc1ncc(Cc2ccc(F)cc2)cc1-c1cccc(Cl)c1` [Example 88, 3-(3-Chlorophenyl)-5-[(4-fluorophenyl)methyl]-2-methoxypyridine] was run?
A: 100 to 1000 nM

Q: How did the EC50 turn out when `Nc1ncc(Cc2cnc(OC(F)F)c(-c3cccc(Cl)c3)c2)cn1` [Example 89, 5-{[5-(3-Chlorophenyl)-6-(difluoromethoxy)pyridin-3-yl]methyl}pyrimidin-2-amine] was run?
A: < 100 nM

Q: `COc1ncc(Cc2ccc(C(N)=O)nc2)nc1-c1cccc(Cl)c1` [Example 90, 5-{[6-(3-Chlorophenyl)-5-methoxypyrazin-2-yl]methyl}pyridine-2-carboxamide] was tested. Which EC50 did it give?
A: 100 to 1000 nM

Q: How did the EC50 turn out when `FC(F)Oc1ncc(Cc2cnc(NC3CC3)nc2)cc1-c1cccc(Cl)c1` [Example 91, 5-{[5-(3-Chlorophenyl)-6-(difluoromethoxy)pyridin-3-yl]methyl}-N-cyclopropylpyrimidin-2-amine] was run?
A: 100 to 1000 nM

Q: Which EC50 does the source give for `COc1ncc(Cc2cnc(OC(F)F)c(-c3cccc(Cl)c3)c2)cn1` [Example 92, 5-{[5-(3-Chlorophenyl)-6-(difluoromethoxy)pyridin-3-yl]methyl}-2-methoxypyrimidine] here?
A: < 100 nM
